Laboratory results as given in ChEMBL document CHEMBL3259697, “Identification of type II and III DDR2 inhibitors” (J Med Chem, 2014).
pIC50, pKd: −log10 of the molar value. Active and inactive are the calls of the source. The rule behind the calls is not given here.

How the values were obtained:
[1] = target: T1, Discoidin domain-containing receptor 2 (Homo sapiens, UniProt Q16832)
T1 sequence (Q16832 whole entry): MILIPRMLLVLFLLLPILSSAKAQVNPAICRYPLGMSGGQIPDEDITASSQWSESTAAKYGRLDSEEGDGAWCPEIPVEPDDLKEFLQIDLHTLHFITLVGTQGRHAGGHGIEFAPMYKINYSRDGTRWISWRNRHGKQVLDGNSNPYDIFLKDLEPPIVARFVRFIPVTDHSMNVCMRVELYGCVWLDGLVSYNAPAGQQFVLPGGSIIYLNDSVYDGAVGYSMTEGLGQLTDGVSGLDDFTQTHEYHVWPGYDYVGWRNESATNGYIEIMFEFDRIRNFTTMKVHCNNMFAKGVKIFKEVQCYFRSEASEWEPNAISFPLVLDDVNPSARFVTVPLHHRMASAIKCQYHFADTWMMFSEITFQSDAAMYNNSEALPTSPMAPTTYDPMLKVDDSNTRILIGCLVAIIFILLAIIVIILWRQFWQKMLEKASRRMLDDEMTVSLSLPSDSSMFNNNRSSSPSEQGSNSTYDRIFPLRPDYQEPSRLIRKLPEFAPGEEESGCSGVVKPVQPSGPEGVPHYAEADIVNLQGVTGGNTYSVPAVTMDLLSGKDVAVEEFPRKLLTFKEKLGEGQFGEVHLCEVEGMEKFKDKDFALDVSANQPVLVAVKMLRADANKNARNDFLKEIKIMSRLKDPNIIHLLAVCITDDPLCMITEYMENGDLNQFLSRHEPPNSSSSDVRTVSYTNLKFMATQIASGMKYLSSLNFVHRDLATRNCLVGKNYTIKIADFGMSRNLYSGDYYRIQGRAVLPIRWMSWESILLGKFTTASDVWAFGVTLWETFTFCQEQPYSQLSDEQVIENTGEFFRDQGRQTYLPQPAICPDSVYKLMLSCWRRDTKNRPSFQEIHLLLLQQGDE
Description: Inhibition of wild type DDR2 (unknown origin) preincubated for 30 mins before substrate addition by FRET assay

[2] = target: T1, Discoidin domain-containing receptor 2; remark: listed apart in the source
Description: Binding affinity to human acrylodan-labeled N-terminal His-tagged DDR2 (558 to 855 aa) by FLiK assay

[3] = target: Discoidin domain-containing receptor 2 (Homo sapiens, UniProt Q16832, T654M); assay: Inhibition of DDR2 T654M mutant (unknown origin) preincubated for 30 mins before substrate addition by FRET assay
[4] = target: T1, Discoidin domain-containing receptor 2; assay: Inhibition of DDR2 (unknown origin) after 120 mins by radiometric assay in presence of gamma-[33P]-ATP
[5] = target: T2, Discoidin domain-containing receptor 2 (Homo sapiens) (UniProt Q16832); assay: Reversible binding affinity to human acrylodan-labeled N-terminal His-tagged DDR2 (558 to 855 aa) at 100 nM by fluorescence spectroscopy
T2 sequence (whole entry): T1 sequence (Q16832 whole entry)

[6] = target: T1, Discoidin domain-containing receptor 2; assay: Binding affinity to human acrylodan-labeled N-terminal His-tagged DDR2 (558 to 855 aa) by fluorescence spectroscopy
[7] = target: T1, Discoidin domain-containing receptor 2; assay: Binding affinity to human DDR2 by Ambit assay
[8] = target: Epithelial discoidin domain-containing receptor 1 (Homo sapiens, UniProt Q08345); assay: Inhibition of DDR1 (unknown origin) after 120 mins by radiometric assay in presence of gamma-[33P]-ATP
Epithelial discoidin domain-containing receptor 1, sequence (Q08345 whole entry, the tested form may be a part): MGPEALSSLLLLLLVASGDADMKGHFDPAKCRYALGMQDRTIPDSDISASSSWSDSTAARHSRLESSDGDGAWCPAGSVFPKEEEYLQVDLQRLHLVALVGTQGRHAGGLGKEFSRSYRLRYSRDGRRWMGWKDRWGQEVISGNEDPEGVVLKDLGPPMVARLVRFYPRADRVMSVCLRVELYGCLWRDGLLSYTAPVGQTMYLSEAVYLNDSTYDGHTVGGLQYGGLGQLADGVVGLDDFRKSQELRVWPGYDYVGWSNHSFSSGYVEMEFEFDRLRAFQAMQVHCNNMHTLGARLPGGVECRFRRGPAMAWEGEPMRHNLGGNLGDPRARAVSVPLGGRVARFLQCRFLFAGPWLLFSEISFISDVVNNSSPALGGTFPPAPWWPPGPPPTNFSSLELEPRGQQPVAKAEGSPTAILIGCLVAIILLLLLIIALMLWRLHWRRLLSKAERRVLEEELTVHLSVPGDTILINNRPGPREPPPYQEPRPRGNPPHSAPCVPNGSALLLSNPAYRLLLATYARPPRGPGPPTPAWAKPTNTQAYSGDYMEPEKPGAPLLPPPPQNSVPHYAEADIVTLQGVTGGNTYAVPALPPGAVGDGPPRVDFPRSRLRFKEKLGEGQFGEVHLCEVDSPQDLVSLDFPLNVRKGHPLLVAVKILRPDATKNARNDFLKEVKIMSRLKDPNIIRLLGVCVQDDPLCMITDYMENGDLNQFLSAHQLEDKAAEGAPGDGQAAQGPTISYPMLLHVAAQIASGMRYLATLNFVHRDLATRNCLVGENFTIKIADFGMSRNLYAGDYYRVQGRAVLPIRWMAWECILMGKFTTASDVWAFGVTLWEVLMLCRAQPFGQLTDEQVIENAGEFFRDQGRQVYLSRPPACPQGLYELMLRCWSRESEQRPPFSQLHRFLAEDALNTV

Discoidin domain-containing receptor 2 (Homo sapiens, UniProt Q16832, T654M), sequence (Q16832 22-855 T654M limits assumed): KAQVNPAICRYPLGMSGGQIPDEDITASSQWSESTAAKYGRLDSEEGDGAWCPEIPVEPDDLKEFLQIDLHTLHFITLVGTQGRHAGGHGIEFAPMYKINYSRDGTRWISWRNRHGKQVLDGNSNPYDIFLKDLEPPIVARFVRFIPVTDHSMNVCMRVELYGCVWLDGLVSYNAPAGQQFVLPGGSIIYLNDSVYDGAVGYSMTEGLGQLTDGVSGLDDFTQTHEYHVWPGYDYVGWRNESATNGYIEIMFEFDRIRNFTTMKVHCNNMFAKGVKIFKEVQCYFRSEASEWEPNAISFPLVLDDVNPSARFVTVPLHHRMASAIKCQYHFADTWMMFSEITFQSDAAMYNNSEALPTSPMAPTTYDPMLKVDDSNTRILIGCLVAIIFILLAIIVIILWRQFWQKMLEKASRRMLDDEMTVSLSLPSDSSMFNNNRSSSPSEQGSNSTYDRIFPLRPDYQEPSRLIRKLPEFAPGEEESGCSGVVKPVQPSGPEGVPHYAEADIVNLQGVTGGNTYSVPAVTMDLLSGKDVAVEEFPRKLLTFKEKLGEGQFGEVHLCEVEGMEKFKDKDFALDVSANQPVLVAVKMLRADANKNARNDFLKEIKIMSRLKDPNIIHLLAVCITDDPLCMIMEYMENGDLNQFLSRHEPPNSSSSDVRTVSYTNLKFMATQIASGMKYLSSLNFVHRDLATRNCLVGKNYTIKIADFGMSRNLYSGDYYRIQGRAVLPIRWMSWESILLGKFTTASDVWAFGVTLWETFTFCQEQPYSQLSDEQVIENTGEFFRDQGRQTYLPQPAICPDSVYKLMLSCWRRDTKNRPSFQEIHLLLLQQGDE

| pIC50 [1] | pKd [2] | pIC50 [3] | pIC50 [4] | Activity [5] | pKd [6] | pKd [7] | pIC50 [8] | SMILES |
| --- | --- | --- | --- | --- | --- | --- | --- | --- |
| 6.48 | 6.37 | ≤ 4.00 |  |  |  |  |  | CC(C)(C)c1cc(NC(=O)Nc2cccc3ccccc23)n(-c2cccc([N+](=O)[O-])c2)n1 |
| 8.10 | 7.70 | 7.14 |  |  |  |  |  | CC(C)(C)c1cc(NC(=O)Nc2ccc(OCCN3CCOCC3)c3ccccc23)n(-c2cccc(N)c2)n1 |
| 4.09 | < 6.00 | ≤ 4.00 |  |  |  |  |  | Nc1c(-c2ccccc2)oc2ccccc2c1=O |
| 5.81 | 6.41 | 6.42 |  |  |  |  |  | O=C(O)Cc1cccc(-n2nc(C3CCCC3)cc2NC(=O)Nc2nc(CCOCc3ccccc3)cs2)c1 |
| 5.33 | 6.15 | 5.94 |  |  |  |  |  | Cc1ccc(-n2nc(C(C)(C)C)cc2NC(=O)Nc2nccs2)cc1 |
| 5.52 | 6.39 | 6.64 |  |  |  |  |  | Cc1ccc(-n2nc(C(C)(C)C)cc2NC(=O)Nc2nc(CCOCc3ccc(F)cc3)cs2)cc1 |
| 6.74 | 7.82 | 6.09 |  |  |  |  |  | Cc1cccc(-n2nc(C(C)(C)C)cc2NC(=O)Nc2ccc(Cl)cc2)c1 |
| 6.07 | 6.39 | 5.91 |  |  |  |  |  | CC(C)(C)c1cc(NC(=O)Nc2ccc(Cl)cc2)n(-c2cccc([N+](=O)[O-])c2)n1 |
| 4.84 | < 6.00 |  |  |  |  |  |  | CCOCCNc1cccc(-n2nc(C(C)(C)C)cc2NC(=O)Nc2ccc(OCCN3CCOCC3)c3ccccc23)c1 |
| 8.52 | 7.03 | 9.00 | 7.74 |  |  |  |  | CC(C)(C)c1cc(NC(=O)Nc2ccc(Nc3ncnc4ccccc34)cc2)n(-c2cccc(N)c2)n1 |
| 5.04 | < 6.00 | 6.09 |  |  |  |  |  | CC(C)(C)c1cc(NC(=O)Nc2nccs2)n(-c2ccc(CC(=O)O)cc2)n1 |
| 4.96 | 6.04 |  |  |  |  |  |  | O=C(Nc1ccc(OCCN2CCOCC2)c2ccccc12)c1cc(F)cc(N2CCOCC2)c1 |
| 5.66 | < 6.00 | 5.74 |  |  |  |  |  | O=C(O)Cc1ccc(-n2nc(C3CCCC3)cc2NC(=O)Nc2nc(CCOCc3ccccc3)cs2)cc1 |
| 6.39 | 6.60 | ≤ 4.00 |  |  |  |  |  | Cc1ccc(-n2nc(C(C)(C)C)cc2NC(=O)Nc2cccc3ccccc23)cc1 |
| 4.97 | < 6.00 | 5.78 |  |  |  |  |  | CC(C)(C)c1cc(NC(=O)Nc2nc(CCOCc3ccccc3)cs2)n(-c2cccc(CC(=O)O)c2)n1 |
| 5.91 | 6.37 | 7.12 |  |  |  |  |  | CC(C)(C)c1cc(NC(=O)Nc2nc(CCOCc3ccc(F)cc3)cs2)n(-c2ccc(CC(=O)O)cc2)n1 |
|  | < 6.00 |  |  |  |  |  |  | COc1ccccc1NC(=O)c1sc2nc(C)c(C(=O)Nc3ccc(C)cc3C)c(-c3ccc(NC(C)=O)cc3)c2c1N |
| 6.25 | 7.82 | 6.14 |  | Active | 8.42 | 7.82 |  | CC(C)(C)c1cc(NC(=O)Nc2ccc(Cl)cc2)n(-c2cccc(N)c2)n1 |
|  | < 6.00 |  |  |  |  |  |  | CSc1ccc(-c2nc3cnccn3c2NC2CCCCC2)cc1 |
| 5.65 | 6.42 | 6.17 |  |  |  |  |  | CC(C)(C)c1cc(NC(=O)Nc2nc(CCOCc3ccccc3)cs2)n(-c2ccc(CC(=O)O)cc2)n1 |
| 7.62 | 6.37 | 6.35 |  |  |  |  |  | NC(=O)c1c(OCc2c(F)cc(Br)cc2F)nsc1NC(=O)NCCCCN1CCCC1 [OSI-632] |
| 7.54 | 7.52 | 6.16 |  |  |  |  |  | CCC(=O)Nc1cccc(-n2nc(C(C)(C)C)cc2NC(=O)Nc2ccc(OCCN3CCOCC3)c3ccccc23)c1 |
| 7.72 | 7.20 | 8.70 | 7.19 |  |  |  | 7.17 | Cc1ccc(-n2nc(C(C)(C)C)cc2NC(=O)Nc2nc(CCOCc3ccncc3)cs2)cc1 |
| 5.03 | < 6.00 | 5.60 |  |  |  |  |  | CC(C)(C)c1cc(NC(=O)Nc2ccccc2)n(-c2cccc(N)c2)n1 |
| 8.70 | < 6.00 | 7.14 | 7.12 |  |  |  |  | CC(C)(C)c1cc(NC(=O)Nc2cccc(Nc3ncnc4ccccc34)c2)n(-c2cccc(N)c2)n1 |
